The values below come from PMC7525492, “Microtiter plate-based antibody-competition assay to determine binding affinities and plasma/blood stability of CXCR4 ligands” (Scientific Reports, 2020).

Where “and” joins values, the source holds several entries; their conditions need not be identical. Identical values can stand only once. Like-named read-outs stand apart in the source and are kept apart here. Bridge positions count the residues as written; N and C are the ends. Square brackets hold non-standard residues; d marks the D form. Ends that are not written are not given here. Peptide text beside a SMILES is read from it. * marks the point of attachment. 2Nal = N[C@@H](Cc1ccc2ccccc2c1)C(=O)O; Benzoyl(4-F) = O=C(c1ccc(F)cc1)*; Cit = NC(=O)NCCC[C@H](N)C(=O)O

Data set [1] concerns CXCR7. As to conditions: cited from earlier work.
Data set [2] has as its target T1, CXCR4 (Homo sapiens, UniProt P61073). Description: 12G5 antibody competition assay on SupT1 cells. The format is binding. To be noted: for IC50: SupT1 cells, APC-labelled 12G5, 2 h at 4 °C, mean ± SEM of 3 assays; for Ki: calculated from IC50 12G5 by Cheng-Prusoff, Kd of 12G5 151.5 pM. The procedure: Compounds were serially diluted in ice cold PBS and 12G5-APC antibody was diluted in cold PBS containing 1% FCS. […] Plates were incubated at 4 °C in the dark for 2 h. Afterwards cells were washed twice by centrifugation with PBS containing 1% FCS and fixed with 2% paraformaldehyde (PFA). During all pipetting steps, plates were kept cool by using a cooling pad. Antibody binding was analyzed by flow cytometry (FACS CytoFLEX; Beckman Coulter) by determination of the mean fluorescence intensity (MFI) of at least 5.000 cells (50.000 cells per well) or 1.000 cells (5.000 cells per well).
Ki calculation3 Ki=IC50/1+L/Kd
For Ki = inhibitory constant; IC50 = half maximal inhibition for 12G5 binding; [L] = 12G5 concentration; Kd = dissociation constant of 12G5.
(§1) Statistical analysis was performed in GraphPad Prism (version 8.3.0). IC50 and IC90 curves and the areas under the curves (AUC) were determined by nonlinear regression.

In data set [3] the test system is CXCL12 migration. As to conditions: cited from earlier work.
For data set [4] the following is noted: EPI-X4 sandwich ELISA; cited from earlier work. For orientation: An ELISA detects its analyte on a solid surface through an enzyme-linked reagent.
The test system of data set [5] is CXCR4-tropic HIV-1. To be noted: read-out: IC50 HIV-1, TZM-bl cells.
Data set [6] is described as follows: Functional stability in human plasma read out by 12G5 competition. To be noted: for half-life at 20 µM: human, plasma. It counts as in vitro ADME. As to the method: The t = 0 sample was immediately taken and stored at − 80 °C. Plasma/compound or blood/compound mixture was then transferred to 37 °C and shook at 350 rpm. At given time points samples were taken and stored at − 80 °C. For measuring the functional activity of the plasma/peptide samples, the mixtures were thawed and serially diluted in ice cold PBS (starting with 100% sample). 12G5-APC antibody competition was then performed as described before. Note, that during the competition process the samples are 1:1 diluted with the antibody and the highest plasma concentration on cells was 50%. For blood/peptide functional stability, samples were thawed and centrifuged at 14,000 rpm for 3 min at 4 °C to remove cells and debris. The supernatant was then serially diluted in PBS (starting with 100% sample) and 12G5-antibody competition assay was performed. […] Afterwards cells were washed again and analyzed for bound antibody.
as §1

Data set [7] is described as follows: in vitro. The format is in vitro ADME, human. As to the method: Compounds were 150-fold diluted in human plasma or whole human blood to reach final concentrations of 20 µM. The t = 0 sample was immediately taken and stored at − 80 °C. Plasma/compound or blood/compound mixture was then transferred to 37 °C and shook at 350 rpm. At given time points samples were taken and stored at − 80 °C. For measuring the functional activity of the plasma/peptide samples, the mixtures were thawed and serially diluted in ice cold PBS (starting with 100% sample). 12G5-APC antibody competition was then performed as described before. Note, that during the competition process the samples are 1:1 diluted with the antibody and the highest plasma concentration on cells was 50%. For blood/peptide functional stability, samples were thawed and centrifuged at 14,000 rpm for 3 min at 4 °C to remove cells and debris. The supernatant was then serially diluted in PBS (starting with 100% sample) and 12G5-antibody competition assay was performed. After the 2 h incubation, the cells were washed by centrifugation (1.300 rpm, 4 °C) and 50 µL of 1-step-Fix/Lyse solution (Thermo Fisher #00-5333-54) was added for 15 min at room temperature. Afterwards cells were washed again and analyzed for bound antibody.
Statistical analysis was performed in GraphPad Prism (version 8.3.0). IC50 and IC90 curves and the areas under the curves (AUC) were determined by nonlinear regression. For half-life calculations, the IC50 values for each time point as well as the AUCs were analyzed and normalized relative to t = 0. Activities were then determined ((IC50 (t = 0) / IC50 (t)) × 100) for each time point and half-lives determined by a One-Phase-Decay model.

The test system of data set [8] is CXCR4-tropic HIV-1. The arrangement: method as in PMID 25921529, PMID 30768790. To be noted: cited from earlier work.
Data set [9] relates to SupT1 cells.
Data set [10] addresses T1, CXCR4. Description: 12G5 antibody competition assay on SupT1 cells. It counts as binding. To be noted: 1, 2 and 4 h incubation, Fig. S2.
For data set [11] the following is noted: 20 µM, up to 60 min, 37 °C, mouse plasma from a single animal.
Procedure: Next, we evaluated whether the competition assay may be applied to measure peptide degradation in mouse plasma.
Plasma from 6 donors was pooled and stored in aliquots at − 80 °C. Mouse plasma was obtained by heart punctation of BL6 mice after cervical dislocation. Blood was 19:1 diluted with 0.16 M NaEDTA and centrifuged at 2000 rcf for 20 min at 4 °C to obtain plasma.
for 60 min at 37°C. At given time points aliquots were taken and stored at - 80°C. Activity of plasma/peptide was
determined using 12G5- antibody competition assay.
The target of data set [12] is T1, CXCR4. Briefly: 1D9 control antibody competition on SupT1 cells. It counts as binding. To be noted: PE-labelled 1D9, SupT1 cells, single experiment.
Procedure: Small molec ule (a) or peptide
(b, c) ligands were diluted in PBS and added to precooled SupT1 cells. A constant concentration of PE-labelled
1D9-antibod y (or 12G5- APC antibod y in (c)) was added immediately afterward s. After 2 h i ncub atio n in t he d ark,
cells were washed and analyzed by flo w cyto metry.
by mea s uring t he percenta ge o f gated living cells in flo w c ytome tr y upon treatme nt with the inhibitor.
data derived from a single experiment.
Where [13] appears, read: infection rate after 3 days, mean ± SEM of 3 assays.
Where [14] appears, read: 20 µM in pooled human plasma (6 donors), 37 °C, from IC50 relative to t = 0, one-phase decay, read-out: half-life t1/2 in plasma.
The mark [15] stands for this setting: read-out: IC50 Migration, 100 ng/mL CXCL12, 4 h, mean ± SEM of 3 assays.

T1 sequence (P61073 whole entry): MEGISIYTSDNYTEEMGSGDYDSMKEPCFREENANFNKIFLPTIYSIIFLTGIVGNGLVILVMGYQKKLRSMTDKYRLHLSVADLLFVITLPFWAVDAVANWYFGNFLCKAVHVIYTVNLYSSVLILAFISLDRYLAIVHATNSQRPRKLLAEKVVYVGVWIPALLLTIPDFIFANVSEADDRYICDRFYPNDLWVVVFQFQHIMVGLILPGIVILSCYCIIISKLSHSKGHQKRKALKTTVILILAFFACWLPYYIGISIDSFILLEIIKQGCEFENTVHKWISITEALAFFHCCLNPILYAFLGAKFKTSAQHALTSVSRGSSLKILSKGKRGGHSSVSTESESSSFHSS

Usually Ki stands for a measure of affinity in units of concentration, obtained from inhibition or displacement. With LVRYTKKVPQVSTPTL [EPI-X4], the CXCR7 binding entry in data set [1] is recorded as “does not bind CXCR7”. Also, the results for the IC50 in data set [2], in data set [5] and in data set [5] (setting [13]) were 1780 ± 162 nM, 31000 nM and 31400 nM, respectively. Further, in data set [2], the Ki was 677 ± 62 nM. Further, the “IC50 to suppress CXCL12 migration” value in data set [3] was “median micromolar range”. Moreover, the half-life in plasma in data set [4] is 17 min and ~ 17 min. Moreover, the half-life at 20 µM in data set [6] (setting [14]) stood at 23 min.
For the compound IVRWSKKVPCVS [EPI-X4 WSC02], the IC50 in data set [2] was found to be 290 ± 75 nM; in data set [5] (setting [13]) it was 257 ± 109 nM; in data set [9] (setting [15]), 15800 nM; in [9] (read-out: IC50 migration, SupT1 towards CXCL12), 16000 nM. In [2], the Ki is 111 ± 29 nM. Also, the “half-life t1/2 in blood” value in data set [7] (20 µM in whole EDTA blood of an individual donor, 37 °C) was found to be 9 min. The half-life at 20 µM in data set [7] (human, 20 µM in whole EDTA blood of an individual donor, 37 °C, read-out: half-life t1/2 in blood) was 8.9 min; in data set [6] (20 µM in plasma of an individual donor, 37 °C, read-out: half-life t1/2 in plasma) it was 9.7 min; in [6] (setting [14]) it was 9.7 min; in data set [6] (20 µM in pooled human plasma, 37 °C, from areas under inhibition curves, read-out: half-life t1/2 in plasma from AUC) it was 9.7 min. Further, in data set [7] (human, plasma), the “stability in blood compared to plasma” value is given as “less stable in blood compared to plasma”. Further, the “IC50 leukemia cell migration towards CXCL12” value in [3] was “nanomolar range”. Further, in data set [8], the “IC50 CXCR4-tropic HIV-1 infection” value is given as “nanomolar range”. Moreover, in data set [6] (20 µM in 99.3% pooled human plasma, 37 °C, 24 h), the “12G5-competing activity after 24 h in plasma” value is recorded as “remained partially active”. In addition, the “half-life t1/2 in plasma” value in data set [6] (20 µM in pooled human plasma (6 donors), 37 °C, from IC50 relative to t = 0, one-phase decay) was 10 min; in data set [6] (20 µM in pooled human plasma (6 donors), 37 °C, from IC50 relative to t = 0, one-phase decay, listed as WCS02) it was ~ 10 min. Moreover, the “inactivation in plasma with L-leucinethiol” value in data set [6] (human plasma pretreated with 300 µM L-leucinethiol (leucyl aminopeptidase inhibitor)) is given as “largely prevented WSC02 inactivation”. Also, in [10], the “IC50, IC90 and AUC after different incubation times” value is reported as “No significant differences”. For the same compound, the “inactivation in mouse plasma versus human plasma” value in data set [11] is “more rapid inactivation of the peptide in mouse plasma”.
On to `N=C(N)NCCC[C@H](NC(=O)[C@@H]1CSSC[C@H](NC(=O)[C@H](Cc2ccc3ccccc3c2)NC(=O)[C@H](CCCNC(=N)N)NC(=O)[C@H](CCCNC(=N)N)NC(=O)c2ccc(F)cc2)C(=O)N[C@@H](Cc2ccc(O)cc2)C(=O)N[C@@H](CCCNC(N)=O)C(=O)N[C@@H](CCCCN)C(=O)N[C@H](CCCCN)C(=O)N2CCC[C@H]2C(=O)N[C@@H](Cc2ccc(O)cc2)C(=O)N[C@@H](CCCNC(=N)N)C(=O)N[C@@H](CCCNC(N)=O)C(=O)N1)C(N)=O` [BKT-140] ({Benzoyl(4-F)}-RR[2Nal]CY[Cit]K[dK]PYR[Cit]CR-NH2; disulfide 4-13; N-terminus and C-terminus assumed), for which the values for the IC50 in data set [5] (setting [13]) and in data set [9] (setting [15]) were 435 ± 153 nM and 932 ± 131 nM, respectively. In addition, in data set [12], the “effect on 1D9 antibody binding” value was “seemed to reduce 1D9 binding”.
